Measured values published in ChEMBL document CHEMBL1201862, “PubChem BioAssay data set” (2004).
Active and inactive are the calls of the source.

How the values were obtained:
[1] = molecular target: T1, Serine/threonine-protein phosphatase (Candida dubliniensis (strain CD36 / CBS 7987 / NCPF 3949 / NRRLY-17841) (Yeast), UniProt B9W6M3); experiment: blockers of CaCl2-induced CDRE-lacZ signaling – S. cerevisiae, luminescence, secondary, dose response (AID 2388); assay type: functional, cell-based;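 note: yeast reporter cells carrying a calcineurin-responsive lacZ construct stimulated with calcium chloride; luminescent beta-galactosidase reporter signal in whole cells rather than isolated phosphatase activity; potency for inhibition where a drop in reporter signal means calcineurin blockade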
T1 sequence (B9W6M3 whole entry): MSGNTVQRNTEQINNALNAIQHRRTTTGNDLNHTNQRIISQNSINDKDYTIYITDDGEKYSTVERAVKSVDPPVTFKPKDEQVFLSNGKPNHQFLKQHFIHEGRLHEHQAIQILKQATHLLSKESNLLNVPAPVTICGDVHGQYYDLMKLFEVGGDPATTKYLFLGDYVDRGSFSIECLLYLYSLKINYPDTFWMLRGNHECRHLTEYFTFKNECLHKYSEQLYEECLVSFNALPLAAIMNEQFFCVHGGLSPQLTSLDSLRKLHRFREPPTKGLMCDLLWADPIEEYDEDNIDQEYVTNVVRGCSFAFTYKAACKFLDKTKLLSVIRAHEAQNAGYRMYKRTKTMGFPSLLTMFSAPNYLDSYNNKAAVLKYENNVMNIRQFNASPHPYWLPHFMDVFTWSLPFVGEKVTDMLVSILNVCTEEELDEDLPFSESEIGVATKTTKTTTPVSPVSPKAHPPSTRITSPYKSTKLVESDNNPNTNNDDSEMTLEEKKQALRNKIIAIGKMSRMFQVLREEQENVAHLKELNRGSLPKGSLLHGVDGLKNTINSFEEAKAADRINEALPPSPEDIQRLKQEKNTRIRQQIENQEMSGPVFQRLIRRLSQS

[2] = molecular target: Serine/threonine-protein kinase PLK4 (Homo sapiens, UniProt O00444); assay type: functional;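 note: PLK4 measured as one member of a kinome-wide kinase profiling panel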
[3] = molecular target: Serine/threonine-protein kinase Nek4 (Homo sapiens, UniProt P51957); assay type: functional
SRSF protein kinase 1 = SRSF protein kinase 1 (Homo sapiens, UniProt Q96SB4); assay type: functional;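 note: measured as one member of a kinome-wide kinase profiling panel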
[4] = molecular target: Serine/threonine-protein kinase BRSK1 (Homo sapiens, UniProt Q8TDC3); assay type: functional;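 note: measured within a kinome-wide kinase panel, with the target listed as KIAA1811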
[5] = molecular target: Protein kinase C zeta type (Homo sapiens, UniProt Q05513); assay type: functional;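 note: measured as one member of a broad kinase profiling panel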
[6] = molecular target: Phosphorylase b kinase gamma catalytic chain, liver/testis isoform (Homo sapiens, UniProt P15735); assay type: functional;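 note: PHKG2 measured as one member of a kinome-wide kinase panel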
[7] = molecular target: Vascular endothelial growth factor receptor 3 (Homo sapiens, UniProt P35916); assay type: functional;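 note: value from a kinome-wide profiling panel, with FLT4 as the panel member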
[8] = molecular target: Mitogen-activated protein kinase kinase kinase kinase 4 (Homo sapiens, UniProt O95819); assay type: functional
[9] = molecular target: Serine/threonine-protein kinase PLK3 (Homo sapiens, UniProt Q9H4B4); assay type: functional
[10] = molecular target: Hepatocyte growth factor receptor (Homo sapiens, UniProt P08581); assay type: functional;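 note: kinase panel profiling across the kinome, with MET as the panel member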
[11] = molecular target: Mitogen-activated protein kinase kinase kinase kinase 2 (Homo sapiens, UniProt Q12851); assay type: functional;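 note: measured as one member of a kinome-wide kinase panel, with MAP4K2 as the panel entry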
[12] = molecular target: Serine/threonine-protein kinase pim-3 (Homo sapiens, UniProt Q86V86); assay type: functional;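 note: value obtained as one member of a broad kinase panel profiling effort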
[13] = molecular target: Fibroblast growth factor receptor 1 (Homo sapiens, UniProt P11362); assay type: functional
[14] = molecular target: Homeodomain-interacting protein kinase 4 (Homo sapiens, UniProt Q8NE63); assay type: functional
[15] = molecular target: Tyrosine-protein kinase JAK3 (Homo sapiens, UniProt P52333); assay type: functional
[16] = molecular target: Cyclin-dependent kinase 5 (Homo sapiens, UniProt Q00535); assay type: functional;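 note: CDK5 measured as one member of a kinase profiling panel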
[17] = molecular target: Epidermal growth factor receptor (Homo sapiens, UniProt P00533)
[18] = molecular target: Mitogen-activated protein kinase 1 (Homo sapiens, UniProt P28482); assay type: functional
[19] = molecular target: Calcium/calmodulin-dependent protein kinase type II subunit delta (Homo sapiens, UniProt Q13557); assay type: functional

Sequence of SRSF protein kinase 1 (Q96SB4 whole entry): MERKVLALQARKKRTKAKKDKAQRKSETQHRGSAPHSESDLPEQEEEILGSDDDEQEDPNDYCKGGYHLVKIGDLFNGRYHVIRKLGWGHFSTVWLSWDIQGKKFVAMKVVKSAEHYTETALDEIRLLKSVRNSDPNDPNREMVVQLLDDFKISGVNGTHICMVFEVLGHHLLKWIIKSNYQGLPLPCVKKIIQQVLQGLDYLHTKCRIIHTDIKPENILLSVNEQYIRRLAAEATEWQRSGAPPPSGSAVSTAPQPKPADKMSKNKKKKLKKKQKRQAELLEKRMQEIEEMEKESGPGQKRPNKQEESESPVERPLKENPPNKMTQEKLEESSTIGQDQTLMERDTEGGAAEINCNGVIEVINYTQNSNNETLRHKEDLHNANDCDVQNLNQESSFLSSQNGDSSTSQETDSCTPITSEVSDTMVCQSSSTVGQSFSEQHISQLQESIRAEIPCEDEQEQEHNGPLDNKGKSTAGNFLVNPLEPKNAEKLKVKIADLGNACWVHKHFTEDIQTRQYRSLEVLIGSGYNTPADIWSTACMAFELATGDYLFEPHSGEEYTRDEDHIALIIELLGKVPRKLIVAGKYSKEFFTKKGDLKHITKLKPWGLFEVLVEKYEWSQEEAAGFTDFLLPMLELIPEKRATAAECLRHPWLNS
Sequence of Homeodomain-interacting protein kinase 4 (Q8NE63 whole entry): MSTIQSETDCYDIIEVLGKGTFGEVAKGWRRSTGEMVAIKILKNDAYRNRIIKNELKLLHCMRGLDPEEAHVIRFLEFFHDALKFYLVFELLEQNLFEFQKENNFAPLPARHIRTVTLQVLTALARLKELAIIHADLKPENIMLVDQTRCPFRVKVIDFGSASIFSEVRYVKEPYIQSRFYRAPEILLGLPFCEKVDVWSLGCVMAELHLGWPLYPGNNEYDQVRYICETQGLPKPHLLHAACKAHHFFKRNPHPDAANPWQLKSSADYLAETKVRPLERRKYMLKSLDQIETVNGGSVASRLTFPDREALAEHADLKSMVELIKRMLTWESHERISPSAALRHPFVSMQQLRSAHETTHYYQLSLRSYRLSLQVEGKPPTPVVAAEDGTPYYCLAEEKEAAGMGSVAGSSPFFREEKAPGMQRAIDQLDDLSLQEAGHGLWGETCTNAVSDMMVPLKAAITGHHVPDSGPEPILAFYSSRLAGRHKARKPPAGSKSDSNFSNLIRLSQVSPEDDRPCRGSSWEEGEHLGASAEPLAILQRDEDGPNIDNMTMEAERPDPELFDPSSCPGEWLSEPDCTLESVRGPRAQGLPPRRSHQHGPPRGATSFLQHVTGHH
Sequence of Tyrosine-protein kinase JAK3 (P52333 whole entry): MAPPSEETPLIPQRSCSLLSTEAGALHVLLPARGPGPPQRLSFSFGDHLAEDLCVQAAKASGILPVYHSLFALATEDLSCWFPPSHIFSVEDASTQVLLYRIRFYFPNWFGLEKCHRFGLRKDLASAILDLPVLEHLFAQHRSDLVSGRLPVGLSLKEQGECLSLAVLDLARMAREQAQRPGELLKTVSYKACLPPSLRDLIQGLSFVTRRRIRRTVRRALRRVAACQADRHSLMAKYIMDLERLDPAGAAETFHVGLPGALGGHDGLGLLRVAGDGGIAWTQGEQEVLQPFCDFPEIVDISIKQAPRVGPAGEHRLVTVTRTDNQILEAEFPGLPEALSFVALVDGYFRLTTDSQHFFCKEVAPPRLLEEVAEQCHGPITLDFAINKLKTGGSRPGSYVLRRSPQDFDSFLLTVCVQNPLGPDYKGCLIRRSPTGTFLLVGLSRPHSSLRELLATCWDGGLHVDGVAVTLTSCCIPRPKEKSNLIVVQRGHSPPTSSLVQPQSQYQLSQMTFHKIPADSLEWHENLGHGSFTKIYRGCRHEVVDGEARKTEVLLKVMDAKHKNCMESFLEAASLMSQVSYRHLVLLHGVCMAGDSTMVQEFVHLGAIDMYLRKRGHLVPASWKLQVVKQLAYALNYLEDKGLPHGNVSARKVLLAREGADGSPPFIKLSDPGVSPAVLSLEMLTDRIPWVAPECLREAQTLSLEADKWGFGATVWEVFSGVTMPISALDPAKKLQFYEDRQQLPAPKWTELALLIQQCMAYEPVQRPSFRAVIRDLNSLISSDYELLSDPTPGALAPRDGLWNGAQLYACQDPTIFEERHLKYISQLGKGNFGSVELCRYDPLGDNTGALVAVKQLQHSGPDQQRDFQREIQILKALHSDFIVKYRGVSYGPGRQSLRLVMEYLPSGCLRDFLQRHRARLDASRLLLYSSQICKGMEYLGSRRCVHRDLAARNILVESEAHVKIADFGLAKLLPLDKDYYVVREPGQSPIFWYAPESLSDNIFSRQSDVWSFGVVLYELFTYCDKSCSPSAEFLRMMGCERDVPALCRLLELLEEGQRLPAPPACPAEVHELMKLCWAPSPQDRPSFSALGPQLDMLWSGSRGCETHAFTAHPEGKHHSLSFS
Sequence of Protein kinase C zeta type (Q05513 whole entry, canonical isoform): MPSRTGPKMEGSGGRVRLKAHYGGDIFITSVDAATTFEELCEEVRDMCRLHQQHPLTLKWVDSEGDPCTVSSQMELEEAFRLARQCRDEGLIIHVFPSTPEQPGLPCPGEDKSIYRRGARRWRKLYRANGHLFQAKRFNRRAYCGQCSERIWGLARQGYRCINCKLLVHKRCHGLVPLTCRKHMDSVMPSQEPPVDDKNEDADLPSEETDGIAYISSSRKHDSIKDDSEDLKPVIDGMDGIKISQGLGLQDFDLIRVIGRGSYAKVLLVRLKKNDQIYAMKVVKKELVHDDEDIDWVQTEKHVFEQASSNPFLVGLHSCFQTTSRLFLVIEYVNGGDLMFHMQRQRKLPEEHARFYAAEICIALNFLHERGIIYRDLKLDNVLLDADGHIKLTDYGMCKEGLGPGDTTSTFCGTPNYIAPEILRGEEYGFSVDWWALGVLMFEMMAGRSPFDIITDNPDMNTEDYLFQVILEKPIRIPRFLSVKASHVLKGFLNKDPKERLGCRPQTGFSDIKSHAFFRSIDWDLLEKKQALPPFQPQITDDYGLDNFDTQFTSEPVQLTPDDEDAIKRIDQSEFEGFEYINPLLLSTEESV
Sequence of Mitogen-activated protein kinase 1 (P28482 whole entry): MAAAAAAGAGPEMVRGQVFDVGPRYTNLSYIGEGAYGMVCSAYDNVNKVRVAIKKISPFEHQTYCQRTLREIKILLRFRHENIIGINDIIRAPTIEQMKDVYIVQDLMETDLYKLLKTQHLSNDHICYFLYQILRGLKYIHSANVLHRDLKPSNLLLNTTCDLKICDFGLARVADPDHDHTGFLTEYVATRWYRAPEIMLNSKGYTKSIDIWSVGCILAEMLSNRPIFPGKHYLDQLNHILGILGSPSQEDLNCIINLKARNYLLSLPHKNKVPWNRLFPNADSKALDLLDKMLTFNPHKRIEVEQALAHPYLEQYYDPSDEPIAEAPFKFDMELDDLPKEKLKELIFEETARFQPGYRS
Sequence of Phosphorylase b kinase gamma catalytic chain, liver/testis isoform (P15735 whole entry, canonical isoform): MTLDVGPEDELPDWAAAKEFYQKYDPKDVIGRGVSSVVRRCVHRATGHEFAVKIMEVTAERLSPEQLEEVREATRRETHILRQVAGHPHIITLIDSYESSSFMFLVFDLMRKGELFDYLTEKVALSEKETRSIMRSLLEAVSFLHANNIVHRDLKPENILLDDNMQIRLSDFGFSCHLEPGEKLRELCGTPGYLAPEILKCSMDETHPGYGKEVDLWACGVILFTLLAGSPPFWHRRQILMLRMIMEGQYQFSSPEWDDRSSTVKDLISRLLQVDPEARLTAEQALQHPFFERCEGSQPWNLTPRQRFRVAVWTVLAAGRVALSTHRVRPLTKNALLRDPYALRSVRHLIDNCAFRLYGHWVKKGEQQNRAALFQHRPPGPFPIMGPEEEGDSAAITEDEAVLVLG
Sequence of Mitogen-activated protein kinase kinase kinase kinase 2 (Q12851 whole entry): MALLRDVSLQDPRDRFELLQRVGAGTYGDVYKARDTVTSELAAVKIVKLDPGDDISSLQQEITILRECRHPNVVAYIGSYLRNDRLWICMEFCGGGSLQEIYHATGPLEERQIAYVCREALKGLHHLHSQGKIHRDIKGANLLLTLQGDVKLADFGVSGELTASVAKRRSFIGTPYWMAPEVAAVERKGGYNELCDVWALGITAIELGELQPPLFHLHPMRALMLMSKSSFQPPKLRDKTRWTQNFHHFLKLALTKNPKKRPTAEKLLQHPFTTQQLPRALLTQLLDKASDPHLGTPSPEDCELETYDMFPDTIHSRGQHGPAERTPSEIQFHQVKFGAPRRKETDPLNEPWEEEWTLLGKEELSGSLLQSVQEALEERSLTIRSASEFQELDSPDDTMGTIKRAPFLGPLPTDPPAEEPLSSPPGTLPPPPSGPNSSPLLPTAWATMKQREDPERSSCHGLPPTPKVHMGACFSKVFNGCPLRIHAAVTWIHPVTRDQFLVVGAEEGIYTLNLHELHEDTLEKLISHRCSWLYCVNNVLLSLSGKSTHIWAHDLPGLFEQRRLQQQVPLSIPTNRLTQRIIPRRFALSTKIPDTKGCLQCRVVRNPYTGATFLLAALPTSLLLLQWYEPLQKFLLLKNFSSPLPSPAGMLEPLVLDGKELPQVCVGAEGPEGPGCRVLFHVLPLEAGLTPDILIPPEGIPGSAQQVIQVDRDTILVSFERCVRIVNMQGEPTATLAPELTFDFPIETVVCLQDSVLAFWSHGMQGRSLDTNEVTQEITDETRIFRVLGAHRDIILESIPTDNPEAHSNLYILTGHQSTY

Row | Ki [2] | Ki [3] | Ki (SRSF protein kinase 1) | Ki [4] | Ki [5] | Ki [6] | Ki [7] | Ki [8] | Ki [9] | Ki [10] | Ki [11] | Ki [12] | Ki [13] | Ki [14] | Ki [15] | Ki [16] | Ki [17] | Ki [18] | Ki [19] | Structure (SMILES) | EC50 [1]
1 |  |  |  |  |  |  |  |  |  |  |  |  |  |  |  |  |  |  |  | COc1ccc(-c2nnc(NC(=O)c3ccc(F)cc3)o2)cc1 | > 180 µM (inactive)
2 | 0.316 µM (active) | > 6.31 µM (inactive) | 7.94 µM (active) | > 10 µM (inactive) | 0.0251 µM (active) | > 5.01 µM (inactive) | 3.16 µM (active) | > 10 µM (inactive) | > 7.94 µM (inactive) | > 3.16 µM (inactive) | > 6.31 µM (inactive) | 1.58 µM (active) | > 5.01 µM (inactive) | 5.01 µM (active) | > 1.58 µM (inactive) | > 10 µM (inactive) | > 2 µM (inactive) | > 7.94 µM (inactive) | > 6.31 µM (inactive) | CCn1c(-c2nonc2N)nc2cnc(Oc3cccc(NC(=O)c4ccc(OCCN5CCOCC5)cc4)c3)cc21 [GSK-269962A] | 
